Source: patent publication US20240254145A1, “SALT FORM AND CRYSTAL FORM OF HETEROCYCLIC SUBSTITUTED PURINONE DERIVATIVE” (ZAI LAB (SHANGHAI) CO., LTD., priority 2021, published 2024)
pIC50: −log10 of the molar value. Values belong to the compound of their own block, whether it stands above or below them.

Tests used:
[1] = Pharmacokinetic evaluation in rat plasma after oral administration; type: in vivo; settings: 30 mg/kg, SD male rats
Description: The test compound was mixed with 0.5% CMC-Na+0.2% (V:V) Tween80 aqueous solution, vortexed, and sonicated to prepare a 3 mg/mL homogeneous suspension. SD male rats were selected, and orally administered with the candidate compound solution at a dose of 30 mg/kg. Whole blood was collected for a certain period of time and prepared into plasma. The drug concentration was analyzed by the LC-MS/MS method, and the pharmacokinetic parameters were calculated using Phoenix WinNonlin software (Pharsight, USA).
Cmax: highest plasma drug concentration after administration; Tmax: time required to reach the peak concentration after administration; T1/2: time required for the plasma drug concentration to decrease by half; Tlast: time at the last detection point; AUC0-last: area under the drug-time curve, which refers to the area enclosed by the plasma drug concentration curve and the time axis.

[2] = target: T1, Human DNA-PK (Homo sapiens, UniProt P78527); assay: DNA-dependent protein kinase (DNA-PK) inhibitory activity screening assay (Eurofins, HTRF); type: biochemical; settings: ATP: 10 μM, 50 nM GST-cMyc-p53
T1 construct: purchased Eurofins (Eurofins Pharma Discovery Service; outsourced assay)
Description: This experiment was tested in the Eurofins
Human DNA-PK; Mg/ATP; GST-cMyc-p53; EDTA; Ser15 antibody; ATP: 10 μM.
DNA-PK(h) was incubated in assay buffer containing 50 nM GST-cMyc-p53 and Mg/ATP (according to the required concentration). The reaction was initiated by adding the Mg/ATP mixture. After incubation at room temperature for 30 minutes, the reaction was stopped by adding a stop solution containing EDTA. Finally, detection buffer (containing labeled anti-GST monoclonal antibody and europium-labeled anti-phospho Ser15 antibody against phosphorylated p53) was added. The plate was then read in time-resolved fluorescence mode, and the homogeneous time-resolved fluorescence (HTRF) signal was determined according to the formula HTRF=10000×(Em665 nm/Em620 nm).

[3] = test system: human lung cancer NCI-H1703 xenograft tumor; assay: In vivo pharmacodynamic study, NCI-H1703 subcutaneous xenograft tumor model; parameters: species or system female BALB/c nude mice; settings: for Tumor volume (Day 0): Day 0, Mean ± SEM; for Tumor volume (Day 0) / Tumor volume (Day 21) / Tumor weight (Day 21): n = 9; for RTV (Day 21) / T/C (%) (Day 21) / T/Cweight (%) / TGI (%) (Day 21): Day 21; for Tumor volume (Day 21) / Tumor weight (Day 21): Day 21, Mean ± SEM
Description: Experimental purpose: To study the in vivo pharmacodynamics of the test compound in the BALB/c nude mouse model with subcutaneous xenograft tumor of human […] NCI-H1703 cells.
Experimental animals: Experimental animals: female BALB/c nude mice, 6 to 8 weeks of age, weighing 18 to 22 grams; supplier: Shanghai Sippr-BK Lab.Animal Co.Ltd.
Human non-small cell lung cancer NCI-H1703 cells were cultured in vitro in RPMI1640 medium with 10% fetal bovine serum, 100 U/mL penicillin, and 100 μg/mL streptomycin, and cultured at 37° C. in a 5% CO2 incubator. Conventional digestion with trypsin-EDTA was performed twice a week for passaging. When the cell saturation was 80% to 90% and the number of cells reached the requirement, and the cells were collected, counted, and seeded.
0.2 mL (5×10^6) NCI-H1703 cells (added with Matrigel, volume ratio of 1:1) were subcutaneously inoculated on the right back of each mouse, and the administration in groups began when the average tumor volume reached about 130 mm^3.
The compound of formula (I) was prepared into 3 mg/mL, 6 mg/mL, and 9 mg/mL suspension solutions with 98.5% water+0.5% HPMC+1% Tween 80.
Tumor diameters were measured with a vernier caliper twice a week. The formula for calculating tumor volume is: V=0.5a×b^2, wherein a and b represent the long and short diameters of the tumor, respectively. The relative tumor volume (RTV) was calculated based on the results of tumor measurement. The calculation formula is RTV=Vt/V0, wherein V0 is the tumor volume measured at the time of group administration (i.e., day 0), and Vt is the tumor volume at one measurement. Data of the same day was taken for TRTV and CRTV.
The tumor inhibitory effect of the compound was evaluated by TGI (%, reflecting the tumor growth inhibition rate) or relative tumor proliferation rate T/C (%):
T/C (%)=TRTV/CRTV×100%, TRTV represents the average RTV of the treatment group, and CRTV represents the average RTV of the negative control group.
TGI (%)=[1−(average tumor volume at the end of administration in a certain treatment group−average tumor volume at the beginning of administration in this treatment group)/(average tumor volume at the end of treatment in the vehicle control group−average tumor volume at the beginning of treatment in the vehicle control group)]×100%.
After the experiment, the tumor weight (TW) was detected and T/Cweight (%) was calculated. The calculation formula is: T/Cweight (%)=TWtreatment/TWvehicle×100%. TWtreatment and TWvehicle represent the tumor weights of the administration group and vehicle control group, respectively.
Statistical analysis was performed using SPSS software based on RTV data at the end of the experiment. […] T-test was used to analyze the comparison between two groups, and one-way ANOVA was used to analyze the comparisons between three or more groups. If the variance was homogeneous (F value had no significant difference), Tukey's method is used for analysis; if the variance was not homogeneous (F value had significant difference), and the Games-Howell method was used for testing. p<0.05 was considered a significant difference.

[4] = Hygroscopicity study by dynamic vapor sorption (DVS); type: physicochemical; settings: 25° C. and 80% RH
Description: Instrument model: SMS DVS intrinsic dynamic moisture sorption analyzer
Test conditions: a sample (about 10 mg) is taken and placed in the DVS sample tray for testing.
The detailed DVS parameters are as follows:
Equilibrium: dm/dt=0.01%/min
RH (%) test increment: 5% RH
RH (%) test increment range: 0% to 95% to 0%
The evaluation and classifications of hygroscopicity are shown as follows:
Sufficient moisture is absorbed to produce a fluid: Deliquescence; ΔW %≥15%: High hygroscopicity; 15%>ΔW %≥2%: Hygroscopicity; 2%>ΔW %≥0.2%: Slight hygroscopicity; ΔW %<0.2%: No hygroscopicity or almost no hygroscopicity: ΔW % indicates hygroscopic weight gain of the sample at 25±1° C. and 80±2% RH.
The crystal form B of the compound of formula (II-1) (about 10 mg) was taken and placed in the DVS sample tray for testing.

[5] = Solid-state stability test of crystal form B (XRPD and HPLC purity); type: physicochemical
Description: Based on the “Guideline for Stability Testing of Pharmaceutical Ingredients and Formulations” (Chinese Pharmacopoeia 2020 Edition, General Rule 9001), in order to evaluate the solid-state stability of the crystal form B of the compound of formula (II-1), the solid-state stability of the crystal form B was investigated in terms of the influencing factors (high temperature, high humidity, and light) and the conditions of 60° C./75% RH and 40° C./75% RH. The crystal form B was placed at high temperature (60° C., open) and high humidity (25° C./92.5° RH, open) for 10 days respectively, and then placed open under visible and UV light (samples of the shaded control group were placed at the same time and wrapped in tin foil) according to the ICH conditions (total illuminance up to 1,200,000 Lux hrs in visible and 200 W hrs/m^2 in UV), for 1, 2, and 3 months at 60° C./75% RH (open), and for 1, 2, and 3 months at 40° C./75% RH (open).
About 10 mg of this crystal form was accurately weighed and placed in a dry and clean glass vial, spread into a thin layer, and left open under the test conditions of the influence factors and the accelerated conditions. Samples placed under light conditions (visible light 1200000 Lux hrs, UV 200 W hrs/m^2) were in a clear glass vial with full exposure, and samples for XRPD test were placed separately.
After the sample was taken out at the time point, it was covered, sealed with a sealing film, and stored in a −20° C. refrigerator. When preparing the sample, the sample was taken out of the refrigerator and warmed to room temperature, and dissolved with 25 mL of diluent (acetonitrile/water, 1:1, v/v) to obtain a solution with a concentration of approximately 0.5 mg/mL. The solution was analyzed using the liquid chromatography, and the results of the test were compared with the initial test results on day 0.
Preparation of standard solution on day 0: About 12.5 mg of this crystal form was weighed and placed in a 25 mL volumetric flask, dissolved with […], and diluted to the mark.
At the same time, HPLC tests were performed on all stability samples.

AUC(0-t) ([1]; male, SD, rat, po): 87.4 µM·h | Cmax ([1]; male, SD, rat, po): 11.1 µM | pIC50 [2]: 9.22
Compound: Cc1cc2ncnn2cc1Nc1ncc2c(n1)n(N1CC3CCC(C1)O3)c(=O)n2C

Compound: Cc1cc2ncnn2cc1Nc1ncc2c(n1)n(N1CC3CCC(C1)O3)c(=O)n2C [Compound of formula (I)]
Tumor volume (Day 0) ([3]; 30 mg/kg): 131 ± 10 mm^3 | RTV (Day 21) ([3]; 30 mg/kg): 7.57 ± 0.53 | T/C (%) (Day 21) ([3]; 30 mg/kg): 79.3% | T/Cweight (%) ([3]; 30 mg/kg): 79.6% | TGI (%) (Day 21) ([3]; 30 mg/kg): 20.6% | Tumor volume (Day 21) ([3]; 30 mg/kg): 979 ± 86 mm^3 | Tumor weight (Day 21) ([3]; 30 mg/kg): 1.031 ± 0.095 g | Tumor volume (Day 0) ([3]; 60 mg/kg): 131 ± 10 mm^3 | RTV (Day 21) ([3]; 60 mg/kg): 3.31 ± 0.51 | T/C (%) (Day 21) ([3]; 60 mg/kg): 34.7% | T/Cweight (%) ([3]; 60 mg/kg): 36.0% | TGI (%) (Day 21) ([3]; 60 mg/kg): 72.3% | Tumor volume (Day 21) ([3]; 60 mg/kg): 427 ± 64 mm^3 | Tumor weight (Day 21) ([3]; 60 mg/kg): 0.467 ± 0.078 g | Tumor volume (Day 0) ([3]; 90 mg/kg): 130 ± 10 mm^3 | RTV (Day 21) ([3]; 90 mg/kg): 2.64 ± 0.45 | T/C (%) (Day 21) ([3]; 90 mg/kg): 27.7% | T/Cweight (%) ([3]; 90 mg/kg): 29.2% | TGI (%) (Day 21) ([3]; 90 mg/kg): 79.4% | Tumor volume (Day 21) ([3]; 90 mg/kg): 351 ± 64 mm^3 | Tumor weight (Day 21) ([3]; 90 mg/kg): 0.379 ± 0.069 g

AUC0-last [1]: 83.483 µM·h | Cmax [1]: 14.6 µM | T1/2 [1]: 1.59 h | Tmax [1]: 0.67 h
Compound: Cc1cc2ncnn2cc1Nc1ncc2c(n1)n(N1CC3CCC(C1)O3)c(=O)n2C [Crystal form A of the compound of formula (I)]

Hygroscopicity classification [4]: slightly hygroscopic | Purity (area %) ([5]; 0 days (initial)): 99.70 area % | Purity (area %) ([5]; 40° C., relative humidity of 75%, open, one month): 99.77 area % | Purity (area %) ([5]; 40° C., relative humidity of 75%, open, three months): 99.72 area % | Purity (area %) ([5]; 40° C., relative humidity of 75%, open, two months): 99.76 area % | Purity (area %) ([5]; 60° C., relative humidity of 75%, open, one month): 99.76 area % | Purity (area %) ([5]; 60° C., relative humidity of 75%, open, three months): 99.73 area % | Purity (area %) ([5]; 60° C., relative humidity of 75%, open, two months): 99.73 area % | Purity (area %) ([5]; High humidity (25° C., relative humidity of 92.5%, open), 10 days): 99.75 area % | Purity (area %) ([5]; High temperature (60° C., open), 10 days): 99.71 area % | Purity (area %) ([5]; Shaded control group, wrapped with tin foil, placed with visible light + UV): 99.75 area % | Purity (area %) ([5]; Visible light + UV (ICH conditions), 1,200,000 Lux·hrs, 200 W·hrs/m^2): 99.77 area % | T1/2 [1]: 4.07 h | Tmax [1]: 1.33 h
Compound: Cc1cc2ncnn2cc1Nc1ncc2c(n1)n(N1CC3CCC(C1)O3)c(=O)n2C [Crystal form B of the compound of formula (II-1)]

AUC0-last [1]: 127.313 µM·h | Cmax [1]: 21.7 µM | T1/2 [1]: 2.42 h | Tlast [1]: 32.0 h | Tmax [1]: 1.50 h
Compound: Cc1cc2ncnn2cc1Nc1ncc2c(n1)n(N1CC3CCC(C1)O3)c(=O)n2C [Crystal form K of the compound of formula (VIII-1)]
